Test results published in ChEMBL document CHEMBL1201862, “PubChem BioAssay data set” (2004).
Activity calls are given as the source filed them.

Columns and labels:
[1] = target: T1, Heat shock factor protein 1 (Mus musculus, UniProt P38532); experiment: inhibition of MG132-induced HSE-luciferase signal, confirmation, cell-based, NIH3T3, luminescence, dose retest (AID 2382); format: functional;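 note: NIH3T3 fibroblasts with HSF1-driven luciferase reporter stressed by proteasome inhibitor MG132; luminescence from HSF1-driven luciferase expression after 8 hours of MG132 stress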
T1 sequence (P38532 whole entry): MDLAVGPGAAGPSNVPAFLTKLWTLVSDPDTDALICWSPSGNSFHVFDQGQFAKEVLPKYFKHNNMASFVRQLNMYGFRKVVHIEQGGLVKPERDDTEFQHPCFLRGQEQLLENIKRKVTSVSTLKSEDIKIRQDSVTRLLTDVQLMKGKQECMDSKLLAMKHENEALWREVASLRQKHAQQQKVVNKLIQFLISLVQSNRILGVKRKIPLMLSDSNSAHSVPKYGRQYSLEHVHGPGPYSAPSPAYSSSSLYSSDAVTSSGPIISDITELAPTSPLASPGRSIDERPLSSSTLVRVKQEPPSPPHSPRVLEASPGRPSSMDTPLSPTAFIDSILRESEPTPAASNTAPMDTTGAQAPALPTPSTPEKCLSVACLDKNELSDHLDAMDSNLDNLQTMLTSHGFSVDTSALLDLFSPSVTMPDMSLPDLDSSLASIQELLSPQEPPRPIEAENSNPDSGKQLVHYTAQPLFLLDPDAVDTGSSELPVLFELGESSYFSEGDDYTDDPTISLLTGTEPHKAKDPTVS

Protein RecA = target: T2, Protein RecA (Mycobacterium tuberculosis, UniProt P9WHJ3); experiment: Fluorescence Cell-Free Homogeneous Dose Retest to Identify Inhibitors of RecA-Intein Splicing Activity. [Related pubchem assays (depositor defined):AID2097, AID2223, AID489010, AID492950]; format: functional
T2 sequence (P9WHJ3 whole entry): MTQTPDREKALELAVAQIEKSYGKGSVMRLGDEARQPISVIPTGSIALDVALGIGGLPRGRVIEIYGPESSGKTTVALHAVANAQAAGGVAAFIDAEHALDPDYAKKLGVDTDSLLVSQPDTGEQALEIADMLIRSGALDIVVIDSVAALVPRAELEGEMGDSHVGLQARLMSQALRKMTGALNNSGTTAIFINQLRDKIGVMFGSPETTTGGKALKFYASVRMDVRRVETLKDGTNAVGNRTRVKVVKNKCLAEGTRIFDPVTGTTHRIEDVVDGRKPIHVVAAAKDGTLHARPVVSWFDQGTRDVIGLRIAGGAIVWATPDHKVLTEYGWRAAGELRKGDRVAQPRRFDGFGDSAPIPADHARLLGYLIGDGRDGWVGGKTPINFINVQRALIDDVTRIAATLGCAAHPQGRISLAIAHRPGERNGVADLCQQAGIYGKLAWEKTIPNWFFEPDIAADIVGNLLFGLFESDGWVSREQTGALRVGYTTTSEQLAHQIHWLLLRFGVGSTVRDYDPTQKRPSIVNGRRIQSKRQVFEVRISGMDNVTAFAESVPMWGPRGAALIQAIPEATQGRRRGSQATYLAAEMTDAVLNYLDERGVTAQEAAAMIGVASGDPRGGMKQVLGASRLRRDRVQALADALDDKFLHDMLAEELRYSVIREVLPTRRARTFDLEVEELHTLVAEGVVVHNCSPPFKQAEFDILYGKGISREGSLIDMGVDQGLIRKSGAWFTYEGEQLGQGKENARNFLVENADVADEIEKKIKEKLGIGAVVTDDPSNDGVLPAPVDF

[2] = target: T3, Replicative DNA helicase DnaB (Mycobacterium tuberculosis, UniProt P9WMR3); experiment: DnaB intein splicing inhibitors, dose response, biochemical, cell-free fluorescence (AID 449749); format: functional
T3 sequence (P9WMR3 whole entry): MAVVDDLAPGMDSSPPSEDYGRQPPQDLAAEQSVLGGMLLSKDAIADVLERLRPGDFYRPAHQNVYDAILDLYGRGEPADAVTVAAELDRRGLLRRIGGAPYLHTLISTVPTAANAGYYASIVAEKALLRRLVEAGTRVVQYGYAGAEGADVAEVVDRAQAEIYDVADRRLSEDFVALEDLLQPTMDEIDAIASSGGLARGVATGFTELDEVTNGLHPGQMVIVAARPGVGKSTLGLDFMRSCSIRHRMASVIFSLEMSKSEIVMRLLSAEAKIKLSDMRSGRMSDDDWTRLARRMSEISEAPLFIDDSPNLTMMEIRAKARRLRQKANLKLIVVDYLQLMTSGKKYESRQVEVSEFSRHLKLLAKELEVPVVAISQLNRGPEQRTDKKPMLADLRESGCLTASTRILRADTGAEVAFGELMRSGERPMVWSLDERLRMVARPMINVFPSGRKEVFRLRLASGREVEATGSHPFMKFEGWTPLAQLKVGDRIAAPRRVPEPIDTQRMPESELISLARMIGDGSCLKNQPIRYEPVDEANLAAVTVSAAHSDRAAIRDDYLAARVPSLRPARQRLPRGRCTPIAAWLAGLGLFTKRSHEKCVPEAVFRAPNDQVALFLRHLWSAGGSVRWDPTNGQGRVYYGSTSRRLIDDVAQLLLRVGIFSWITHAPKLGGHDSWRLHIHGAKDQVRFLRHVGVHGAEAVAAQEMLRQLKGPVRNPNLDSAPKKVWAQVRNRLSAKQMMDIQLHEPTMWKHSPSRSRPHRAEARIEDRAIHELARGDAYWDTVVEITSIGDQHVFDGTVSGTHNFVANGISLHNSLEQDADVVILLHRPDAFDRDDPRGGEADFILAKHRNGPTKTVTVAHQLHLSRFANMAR

[3] = target: T1, Heat shock factor protein 1; experiment: HSF1 potentiators in luciferase reporter cells, confirmation, cell-based, NIH3T3, luminescence, dose retest (AID 435004); format: functional;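 note: stress induced by proteasome inhibitor MG132 added 30 min after compound; luciferase reporter driven by HSF1 response element in NIH3T3 cells; actives raise luminescence as potentiators of the MG132 stress response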
Cytochrome P450 2D6 = Cytochrome P450 2D6 (Homo sapiens, UniProt P10635);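 note: CYP2D6 member of a cytochrome P450 panel assay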
Chain of Cytochrome P450 2D6 (P10635 whole entry): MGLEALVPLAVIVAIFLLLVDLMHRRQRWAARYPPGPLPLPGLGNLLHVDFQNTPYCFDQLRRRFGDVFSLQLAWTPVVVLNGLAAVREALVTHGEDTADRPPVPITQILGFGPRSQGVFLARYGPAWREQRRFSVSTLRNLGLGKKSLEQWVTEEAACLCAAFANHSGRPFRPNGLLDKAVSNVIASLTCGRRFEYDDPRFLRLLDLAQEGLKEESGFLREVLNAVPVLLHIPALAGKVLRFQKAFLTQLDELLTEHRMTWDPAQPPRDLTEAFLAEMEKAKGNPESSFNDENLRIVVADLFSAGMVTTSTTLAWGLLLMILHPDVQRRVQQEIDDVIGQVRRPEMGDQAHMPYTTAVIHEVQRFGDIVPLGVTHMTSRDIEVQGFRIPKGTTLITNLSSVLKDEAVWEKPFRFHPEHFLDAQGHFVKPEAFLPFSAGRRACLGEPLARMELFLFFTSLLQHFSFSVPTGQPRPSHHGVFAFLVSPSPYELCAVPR

Cytochrome P450 3A4 = Cytochrome P450 3A4 (Homo sapiens, UniProt P08684);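 note: CYP3A4 tested as one member of a cytochrome P450 panel screen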
Chain of Cytochrome P450 3A4 (P08684 whole entry): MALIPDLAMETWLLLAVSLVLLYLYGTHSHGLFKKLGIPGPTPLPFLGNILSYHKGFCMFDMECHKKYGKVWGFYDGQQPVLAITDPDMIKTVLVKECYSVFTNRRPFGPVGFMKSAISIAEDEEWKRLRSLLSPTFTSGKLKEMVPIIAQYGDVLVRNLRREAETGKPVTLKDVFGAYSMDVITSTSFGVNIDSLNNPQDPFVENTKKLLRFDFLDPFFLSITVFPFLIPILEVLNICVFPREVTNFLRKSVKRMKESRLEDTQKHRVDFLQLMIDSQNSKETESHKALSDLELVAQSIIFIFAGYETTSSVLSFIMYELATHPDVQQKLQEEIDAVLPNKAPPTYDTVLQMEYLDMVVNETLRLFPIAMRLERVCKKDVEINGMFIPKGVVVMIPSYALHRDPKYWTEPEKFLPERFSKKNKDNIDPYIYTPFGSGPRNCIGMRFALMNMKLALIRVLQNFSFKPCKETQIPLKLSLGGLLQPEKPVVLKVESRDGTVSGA

[4] = inhibitors of intracellular T. cruzi replication, confirmation, NIH3T3 host cells, beta-gal luminescence (AID 2044); format: functional, cell-based;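 note: intracellular parasites grown in NIH/3T3 mouse fibroblasts as host cells; luminescent beta-galactosidase reporter signal from transgenic T. cruzi replicating inside host cells; inhibitors lower the luminescence signal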
[5] = cytotoxicity toward NIH3T3 fibroblasts, dose response, counter-screen, cell-based, ATP luminescence, mouse fibroblasts (AID 2010); format: functional;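 note: cells exposed to compound for about 90 hours before reading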
INS1 = experiment: beta cell apoptosis inhibitors, cytokine rescue, dose response, luminescence, retest (AID 449756); format: functional, cell-based; settings: Rattus norvegicus;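 note: cell death triggered by IL-1 beta plus TNF-alpha plus IFN-gamma mixture; protective hits raise ATP signal compared with cytokine alone wells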
Cytochrome P450 2C9 = Cytochrome P450 2C9 (Homo sapiens, UniProt P11712)
Chain of Cytochrome P450 2C9 (P11712 whole entry): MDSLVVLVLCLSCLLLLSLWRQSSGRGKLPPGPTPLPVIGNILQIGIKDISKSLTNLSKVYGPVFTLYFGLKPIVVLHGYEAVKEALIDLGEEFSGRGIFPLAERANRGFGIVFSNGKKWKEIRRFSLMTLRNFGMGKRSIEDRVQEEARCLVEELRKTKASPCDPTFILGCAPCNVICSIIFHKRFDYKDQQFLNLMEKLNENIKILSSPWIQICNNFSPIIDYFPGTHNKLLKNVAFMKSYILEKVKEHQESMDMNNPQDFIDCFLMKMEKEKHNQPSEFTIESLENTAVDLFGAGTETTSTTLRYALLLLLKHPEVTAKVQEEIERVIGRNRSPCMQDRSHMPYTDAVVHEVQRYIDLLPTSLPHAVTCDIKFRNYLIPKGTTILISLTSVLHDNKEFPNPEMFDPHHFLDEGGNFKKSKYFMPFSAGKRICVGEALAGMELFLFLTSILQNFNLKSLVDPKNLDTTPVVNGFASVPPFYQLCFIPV

Cytochrome P450 2C19 = Cytochrome P450 2C19 (Homo sapiens, UniProt P33261); experiment: Cytochrome panel assay with activity outcomes. Panel member name: p450-cyp2c19 Compounds with AC50 equal or less than 10 uM are considered active; format: functional; settings: read-out: AC50
Chain of Cytochrome P450 2C19 (P33261 whole entry): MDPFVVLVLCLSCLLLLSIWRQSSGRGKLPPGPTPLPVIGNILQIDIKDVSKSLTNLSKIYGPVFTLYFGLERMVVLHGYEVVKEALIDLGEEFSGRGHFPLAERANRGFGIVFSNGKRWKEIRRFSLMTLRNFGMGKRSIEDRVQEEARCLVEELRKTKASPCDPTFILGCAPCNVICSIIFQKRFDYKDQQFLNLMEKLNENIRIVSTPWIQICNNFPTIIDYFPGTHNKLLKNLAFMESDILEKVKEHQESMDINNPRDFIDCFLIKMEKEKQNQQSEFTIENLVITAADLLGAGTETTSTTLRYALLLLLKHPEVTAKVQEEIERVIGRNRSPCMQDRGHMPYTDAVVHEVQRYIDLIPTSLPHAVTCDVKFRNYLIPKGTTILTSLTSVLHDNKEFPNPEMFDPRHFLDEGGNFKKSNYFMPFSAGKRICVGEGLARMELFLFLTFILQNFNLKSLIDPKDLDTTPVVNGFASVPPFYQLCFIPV

In the case of `CC(C)CCN(C(=O)CNC(=O)c1cccs1)C(C(=O)NC1CCCCC1)c1cccnc1` (stereo not drawn), the EC50 [1] is reported as > 195 µM (not active).
In the case of `CCOc1cc(C2C(C#N)=C(N)Oc3[nH]nc(C)c32)ccc1OCCN1CCOCC1` (stereo not drawn), the EC50 (Protein RecA) is reported as 4.45 µM (active) and the AC50 [2] is reported as 50.6 µM (active).
With `O=C1NC(=S)S/C1=C\c1nc2ccccc2[nH]1` the EC50 (Protein RecA) was > 120 µM (inactive) and the AC50 [2] was > 380 µM (inactive).
With `CNC(=O)c1[nH]cnc1C(=O)Nc1ccccc1C` the EC50 [1] was > 195 µM (not active).
In the case of `CCN1C(=O)CC(N2CCN(c3ccc(C(=O)c4ccccc4)cc3)CC2)C1=O` (stereo not drawn), the EC50 [3] is reported as > 260 µM (inactive).
With `O=C(NC1CCSc2ccccc21)c1ccccc1Cl` (stereo not drawn) the EC50 [3] was > 260 µM (inactive).
With `FC(F)(F)c1ccccc1-c1cc(NCc2cccnc2)ncn1` the AC50 (Cytochrome P450 2D6) was 25.1 µM (inconclusive).
With `CN(C)CCCn1c(N)c(C#N)c2nc(C#N)c(C#N)nc21` the EC50 [3] was 58.3 µM (active).
With `COCCNc1nc(-c2ccccc2OC)nc2ccccc12` the AC50 (Cytochrome P450 3A4) was 20 µM (inconclusive) and the AC50 (Cytochrome P450 2D6) was 25.1 µM (inconclusive).
In the case of `COc1ccc(S(=O)(=O)N2CCCC2)cc1C(C)C`, the EC50 [1] is reported as > 195 µM (not active).
For `O=C(CCNc1ccc(F)cc1)c1cc2ccccc2o1`, the EC50 [4] was 1.12 µM (active) and the EC50 [5] was > 60 µM (not active).
With `CCc1ccc(-c2cc(C(F)(F)F)n3nc(C(=O)Nc4cnn(Cc5ccc(C)cc5)c4)cc3n2)s1` the AC50 (INS1) was 3.63 µM (active).
With `c1ccc2c(c1)ncn2-c1ncnc2sc3c(c12)CCCC3` the AC50 (Cytochrome P450 3A4) was 14.1 µM (inconclusive), the AC50 (Cytochrome P450 2D6) was 0.00501 µM (inconclusive) and the AC50 (Cytochrome P450 2C9) was 20 µM (inconclusive).
In the case of `CCOC(=O)c1c(N=C(S)N2CCOCC2)sc2c1CCN(C(=O)OCC)C2`, the EC50 (Protein RecA) is reported as 20.1 µM (active) and the AC50 [2] is reported as 5.25 µM (active).
For `COc1cccc(N/C([S-])=C(/C(=O)c2ccc(C)c([N+](=O)[O-])c2)[n+]2ccccc2)c1`, the EC50 (Protein RecA) was 9.74 µM (active) and the AC50 [2] was 13.3 µM (active).
With `NCCCc1ccc2oc3ccccc3c2c1` the AC50 (Cytochrome P450 2D6) was 2.51 µM (inconclusive) and the AC50 (Cytochrome P450 2C19) was 7.94 µM (inconclusive).
With `COc1ccccc1NC(=O)CN1CCN(CC(=O)Nc2ccccc2Cl)CC1` the EC50 [3] was > 260 µM (inactive).
For `C[C@H](CO)N1C[C@H](C)[C@@H](CN(C)C(=O)NC2CCCCC2)Oc2c(NC(=O)Nc3ccc(C(F)(F)F)cc3)cccc2C1=O`, the AC50 (INS1) was 27.7 µM (active).
In the case of `Oc1ccc(/C(Cc2ccc3ccccc3n2)=N\Nc2ccccc2)c(O)c1`, the EC50 (Protein RecA) is reported as 13.6 µM (active) and the AC50 [2] is reported as 78.3 µM (active).
For `O=C(N/N=C/c1ccc(-c2cccc([N+](=O)[O-])c2)o1)c1cccs1`, the EC50 [4] was 0.634 µM (active) and the EC50 [5] was > 60 µM (not active).
With `CC1Cc2ccccc2N1C(=O)CO/N=C/c1ccc(OC(F)F)cc1` (stereo not drawn) the EC50 [1] was > 195 µM (not active).
In the case of `O=C(N/N=C/c1cccnc1)c1ccccc1NS(=O)(=O)c1cccs1`, the AC50 (INS1) is reported as > 260 µM (inactive).
